Measured values reported in PubChem BioAssay AID504419 (The Scripps Research Institute Molecular Screening Center, 2011).
The source made the active and inactive calls. How the calls were made is not given here.

Key:
NS3h 1b (con1) = assay: NS3 helicase inhibitors across HCV genotypes, late-stage follow-up, selectivity assay for HCV NS3 helicase inhibitor project, biochemical, real-time fluorescence, genotypes 2a and 1b, Set 2 (AID 504419); settings: Recombinant NS3 helicase, real-time fluorescence unwinding
NS3h 2a (JFH1) = assay: as above; settings: Recombinant NS3 helicase, real-time fluorescence unwinding

IC50 (NS3h 1b (con1))	IC50 (NS3h 2a (JFH1))	SMILES
> 100 µM (inactive)	> 100 µM (inactive)	Cc1cc(N2C(=O)C(O)=C(C(=O)c3ccc(C)o3)C2c2cc(Cl)cc(Cl)c2)no1 (stereo not drawn)
> 100 µM (inactive)	> 100 µM (inactive)	CN(C)S(=O)(=O)c1cccc(NC(=S)N/N=C/c2cc(Br)ccc2O)c1
inactive	inactive	Cc1ccc2nc(-c3ccc4nc(-c5ccc(N)cc5)sc4c3)sc2c1S(=O)(=O)O
> 100 µM (inactive)	> 100 µM (inactive)	CCCCCOc1ccc(C2C(C(=O)c3ccc(C)o3)=C(OC)C(=O)N2c2cc(C)on2)cc1 (stereo not drawn)
